Earlier results in US20060166941A1, “Treatment and/or prevention of non-viral epithelial damage” (Epistem Limited, priority 2003, published 2006).

System: Na+/Pi cotransport across renal cortical brush border membrane
Conditions: Hoppe et al. 1988; cited from earlier work

SMILES: O=C(O)C(Cl)(Br)P(=O)(O)O (stereo not drawn) [alpha-Cl-alpha-Br-phosphonoacetate]
- inhibitory activity relative to phosphonoformic acid: threefold greater inhibitory activity than phosphonoformic acid
